Row | melting point [°C] | SMILES
1 | 245 to 247 | N#Cc1cccc(-c2ccc3c(c2)C2(CCCCC2)OC(=O)N3)c1 [Example 106, 3-(1,2-Dihydro-2-oxospiro[4H-3,1-benzoxazine-4,1-cyclohexan]-6-yl)-benzonitrile]
2 | 250 to 253 | N#Cc1cc(F)cc(-c2ccc3c(c2)C2(CCCCC2)OC(=O)N3)c1 [Example 107, 3-(1,2-Dihydro-2-oxospiro[4H-3,1-benzoxazine-4,1-cyclohexan]-6-yl)-5-fluorobenzonitrile]
3 | 230 to 232 | N#Cc1cc(-c2ccc3c(c2)C2(CCCCC2)OC(=O)N3)cs1 [Example 108, 4-(1,2-Dihydro-2-oxospiro[4H-3,1-benzoxazine-4,1-cyclohexan]-6-yl)2-thiophenecarbonitrile]
4 | 160 to 162 | CCc1cc(C#N)sc1-c1ccc2c(c1)C(C)(C)OC(=O)N2 [Example 111, 5(4,4-Dimethyl-2-oxo-1,4-dihydro-2H-benzo[d][1,3]oxazin-6-yl)-4-ethyl-thiophene-2-carbonitrile]
5 | 160 to 162 | CCCc1cc(C#N)sc1-c1ccc2c(c1)C(C)(C)OC(=O)N2 [Example 112, 5-(4,4-Dimethyl-2-oxo-1,4-dihydro-2H-benzo[d][1,3]oxazin-6-yl)4-n-propyl-thiophene-2-carbonitrile]
6 | 167 to 168 | CCCCc1cc(C#N)sc1-c1ccc2c(c1)C(C)(C)OC(=O)N2 [Example 113, 5-(4,4-Dimethyl-2-oxo-1,4-dihydro-2H-benzo[d][1,3]oxazin-6-yl)4-n-butyl-thiophene-2-carbonitrile]
7 | 188 to 190 | CC1(C)OC(=O)Nc2ccc(-c3cccc(CC#N)c3)cc21 [Example 118, 3-(4,4Dimethyl-2-oxo-1,4-dihydro-2H-benzo[d][1,3]-oxazin-6-yl)phenylacetonitrile]
8 | 257 to 260 | CC1(C)OC(=O)Nc2ccc(-c3ccc(C#N)o3)cc21 [Example 119, 5-(4,4Dimethyl-2-oxo-1,4-dihydro-2H-benzo[d][1,3]oxazin-6-yl)-furan-2-carbonitrile]
9 | 192 to 198 | CC1(C)OC(=O)Nc2ccc(-c3cccc(C#N)c3F)cc21 [Example 120, 3-(4,4-Dimethyl-2-oxo-1,4-dihydro-2H-benzo[d][1,3]oxazin-6-yl)-2fluoro-benzonitrile]
10 | 145 to 146 | COc1cccc(-c2ccc3c(c2)C2(CCC2)OC(=O)N3)c1 [Example 122, 6-(3-Methoxyphenyl)spiro[4H-3,1-benzoxazine-4,1-cyclobutan]-2(1H)-one]
11 | 194 to 195 | CC1(C)OC(=O)Nc2c(Br)cc(-c3ccc(F)c(Cl)c3)cc21 [Example 123, 8-Bromo-6-(3-chloro-4-fluorophenyl)-4,4-dimethyl-1,4-dihydro-2H-3,1-benzoxazin-2-one]
12 | 216 to 217 | CC1(C)OC(=O)Nc2c(Br)cc(-c3cc(F)cc(C#N)c3)cc21 [Example 124, 3-(8Bromo-4,4-dimethyl-2-oxo-1,4-dihydro-2H-3,1-benzoxazin-6-yl)-5-fluorobenzonitrile]
13 | 235 to 236 | CC1(C)OC(=O)Nc2c(Br)cc(-c3ccc(F)c(C#N)c3)cc21 [Example 125, 5-(8-Bromo-4,4-dimethyl-2-oxo-1,4-dihydro-2H-3,1-benzoxazin-6-yl)-2-fluorobenzonitrile]
14 | 142 to 143 | CN1C(=O)OC(C)(C)c2cc(-c3cccc(Br)c3)ccc21 [Example 126, 6-(3-Bromophenyl)-1,4,4-trimethyl-1,4-dihydro-2H-3,1-benzoxazin-2-one]
15 | 160 to 161 | CC1OC(=O)Nc2ccc(-c3cccc(F)c3)cc21 (stereo not shown) [Example 127, 6-(3-Fluorophenyl)-4-methyl-1,4-dihydro-2H-3,1-benzoxazin-2-one]
16 | 252 to 253 | COc1cc(-c2cc(F)cc(C#N)c2)cc2c1NC(=O)OC2(C)C [Example 128, 3-(4,4-Dimethyl-8-methoxy-2-oxo-1,4-dihydro-2H-3,1-benzoxazin-6-yl)-5-fluorobenzonitrile]
17 | 197 to 198 | CC1(C)OC(=O)Nc2c(O)cc(-c3cc(F)cc(C#N)c3)cc21 [Example 129, 3-(4,4-Dimethyl-8-hydroxy-2-oxo-1,4-dihydro-2H-3,1-benzoxazin-6yl)-5-fluorobenzonitrile]
18 | 166 to 167 | CC1(C)OC(=O)Nc2ccc(-c3cccc(F)c3F)cc21 [Example 130, 6-(2,3-Difluoro-phenyl)-4,4dimethyl-1,4-dihydro-benzo[d][1,3]oxazin-2-one]
19 | 154 to 155 | CCN1C(=O)OC(C)(C)c2cc(-c3cc(F)cc(C#N)c3)ccc21 [Example 131, 3-(1-Ethyl-4,4-dimethyl-2-oxo-1,4-dihydro-2H-benzo[d][1,3]oxazin-6-yl)-5-fluoro-benzonitrile]
20 | 210 to 212.5 | CC1(C)OC(=O)Nc2ccc(-c3cccc(CC#N)n3)cc21 [Example 132, [6-(4,4-dimethyl-2-oxo-1,4dihydro-2H-3,1-benzoxazin-6-yl)pyridin-2-yl]acetonitrile]
21 | 218 to 220 | CC1(C)OC(=O)Nc2ccc(-c3cc(F)cc(CC#N)c3)cc21 [Example 133, 3-(4,4Dimethyl-2-oxo-1,4-dihydro-2H-benzo[d][1,3]-oxazin-6-yl)-5-fluoro-phenylacetonitrile]
22 | 184 to 187 | CC1(C)OC(=O)Nc2ccc(-c3cc(CC#N)ccc3F)cc21 [Example 134, 3-(4,4-Dimethyl-2-oxo-1,4-dihydro2H-benzo[d][1,3]-oxazin-6-yl)-4-fluoro-phenylacetonitrile]
23 | 253 to 256 | CC1(C)OC(=O)Nc2ccc(-c3ccc(CC#N)c(F)c3)cc21 [Example 135, 4-(4,4Dimethyl-2-oxo-1,4-dihydro-2H-benzo[d][1,3]oxazin-6yl)-2-fluorophenylacetonitrile]
24 | 176 to 179 | CC1(C)OC(=O)Nc2ccc(-c3ccccc3CC#N)cc21 [Example 136, 2-(4,4-Dimethyl 2-oxo-1,4-dihydro-2H-benzo[d][1,3]-oxazin-6-yl)phenylacetonitrile]
25 | 245 to 247 | CC(=O)Nc1ccc(-c2ccc3c(c2)C(C)(C)OC(=O)N3)cc1F [Example 137, N-[4-(4,4-Dimethyl-2-oxo-1,4-dihydro-2H-3,1-benzoxazin-6-yl)-2fluoro-phenyl]-acetamide]
26 | 210 to 211 | COc1ccc(-c2ccc3c(c2)C(C)(C)OC(=O)N3)cc1F [Example 138, 6-(3-Fluoro-4-methoxy-phenyl)4,4-dimethyl-1,4-dihydro-benzo[d][1,3]-oxazin-2-one]
27 | 257 to 259 | CC1(C)OC(=O)Nc2ccc(-c3ccc(N)nc3)cc21 [Example 142, 6-(6-Amino-pyridin-3-yl)-4,4-dimethyl-1,4-dihydro-benzo[d][1,3]oxazine-2-one]
28 | 262 to 263 | CC1(C)OC(=O)Nc2ccc(-c3coc(C=O)c3)cc21 [Example 144, 4-(4,4-Dimethyl-2-oxo-1,4-dihydro-2H-benzo[d][1,3]oxazin-6-yl)-furan-2-carbaldehyde]
